21 compounds from patent US12338220B2, “Antiviral pyrazolopiridinone compounds” (Novartis AG, priority 2019, dated 2025) can be followed below.

The target of one test is CMV-polymerase (Human cytomegalovirus (strain AD169) (HHV-5) (Human herpesvirus 5), UniProt P08546). In words: biochemical. The conditions noted are these: read-out: CMV-polymerase Biochemical IC50.
For orientation: IC50 means the midpoint of a concentration-inhibition curve. Take `Cn1nc(C(=O)NCc2ccc(C#N)cc2)c2ccn(CC3(S(=O)(=O)C4CC4)CC3)c(=O)c21` [Example 1, N-(4-cyanobenzyl)-6-((1-(cyclopropylsulfonyl)cyclopropyl)methyl)-1-methyl-7-oxo-6,7-dihydro-1H-pyrazolo[3,4-c]pyridine-3-carboxamide]: the IC50 worked out at 0.01 µM.

A further test relates to CMV. Briefly: microbe, parasite or virus in culture. The conditions noted are these: Human betaherpesvirus 5, 72 h, read-out: CMV-Luc Cellular EC50, NN-NHDF cells, MOI 1, 72 hrs. The format is cell-based.
Usually EC50 stands for the concentration needed to bring the measured effect to its halfway point. As for `Cn1nc(C(=O)NCc2ccc(C#N)cc2)c2ccn(CC3(S(=O)(=O)C4CC4)CC3)c(=O)c21` [Example 1, N-(4-cyanobenzyl)-6-((1-(cyclopropylsulfonyl)cyclopropyl)methyl)-1-methyl-7-oxo-6,7-dihydro-1H-pyrazolo[3,4-c]pyridine-3-carboxamide], the EC50 was 0.124 µM.

The target in the next test is HSV-polymerase (Human herpesvirus 1 (strain 17) (HHV-1) (Human herpes simplex virus 1), UniProt P04293). In words: biochemical.
Conditions: not given
`Cn1nc(C(=O)NCc2ccc(C#N)cc2)c2ccn(CC3(S(=O)(=O)C4CC4)CC3)c(=O)c21` [Example 1, N-(4-cyanobenzyl)-6-((1-(cyclopropylsulfonyl)cyclopropyl)methyl)-1-methyl-7-oxo-6,7-dihydro-1H-pyrazolo[3,4-c]pyridine-3-carboxamide] gave an IC50 of 0.269 µM.

The next test has as its system HCMV-Rluc virus (AD169 pp28-hRluc rUL131). In words: CMV Luciferase Assay of Compounds 243-262 in ARPE-19 cells. The format is cell-based. The conditions noted are these: ARPE-19 cells, MOI 0.6, 72 hours; read-out: CMV-Luc Cellular EC50 in ARPE-19. Here is the method: CMV Luciferase Assay of Compounds 243-262.
Compounds 243-262 were tested in a luminescence assay as follows.
ARPE-19 cells were maintained in growth medium (DMEM/F12 Glutamax+10 fetal bovine serum (FBS)+PenStrep) and, before reaching full confluence, were transferred to a centrifuge tube and spun for 5 minutes at 1000 rpm. The cells were resuspended in assay medium (DMEM/F12 Glutamax+2% FBS+PenStrep) and counted. Cell density was adjusted to one million cells per milliliter and infected with HCMV-Rluc virus (AD169 pp28-hRluc rUL131; MOI 0.6) in a 50 ml conical tube for 2 hours while shaking. After dilution of the infectious suspension ten-fold (to 100,000 cells per milliliter), 8000 cells are directly plated in 384-well plates pre-spotted with the compound to be tested. The cells were incubated for 72 hours at 37 degrees Celsius. Cells were then placed at room temperature and allowed to equilibrate for 20 minutes before addition of the Renilla-Glo (Promega) reagent. After a 10-minute incubation at room temperature, luminescence was measured on a microplate reader.
For `Cn1nc(C(=O)NCc2ccc(C#N)cc2)c2c1C(=O)N(CC1(S(=O)(=O)C(C)(C)C(O)CO)CC1)CC2` (centres unmarked) [Example 252, N-(4-cyanobenzyl)-6-((1-((3,4-dihydroxy-2-methylbutan-2-yl)sulfonyl)cyclopropyl)methyl)-1-methyl-7-oxo-4,5,6,7-tetrahydro-1H-pyrazolo[3,4-c]pyridine-3-carboxamide], the EC50 was found to be 0.0219 µM.

The same test, now with this note: Human betaherpesvirus 5, AD169, ARPE-19, 72 h, read-out: CMV-Luc Cellular EC50 in ARPE-19.
`Cn1nc(C(=O)NCc2ccc(Cl)c(F)c2)c2c1C(=O)N(CC1(S(=O)(=O)C(C)(C)[C@@H](O)CO)CC1)CC2` [Example 251, (S)—N-(4-chloro-3-fluorobenzyl)-6-((1-((3,4-dihydroxy-2-methylbutan-2-yl)sulfonyl)cyclopropyl)methyl)-1-methyl-7-oxo-4,5,6,7-tetrahydro-1H-pyrazolo[3,4-c]pyridine-3-carboxamide]: the EC50 stood at 0.00983 µM.
Still for that read-out and setting: the value for `Cn1nc(C(=O)NCc2ccc(C#N)cc2)c2c1C(=O)N(CC1(S(=O)(=O)N3C[C@H](O)[C@@H](O)C3)CC1)CC2` [Example 255, N-(4-cyanobenzyl)-6-((1-(((3S,4S)-3,4-dihydroxypyrrolidin-1-yl)sulfonyl)cyclopropyl)methyl)-1-methyl-7-oxo-4,5,6,7-tetrahydro-1H-pyrazolo[3,4-c]pyridine-3-carboxamide] was 0.313 µM; that for `Cn1nc(C(=O)NCc2ccc(C#N)cc2)c2c1C(=O)N(CC1(S(=O)(=O)Nc3cnccn3)CC1)CC2` [Example 245, N-(4-cyanobenzyl)-1-methyl-7-oxo-6-((1-(N-(pyrazin-2-yl)sulfamoyl)cyclopropyl)methyl)-4,5,6,7-tetrahydro-1H-pyrazolo[3,4-c]pyridine-3-carboxamide] was 0.181 µM.
Turning to `CN(C)C(=O)CCNS(=O)(=O)C1(CN2CCc3c(C(=O)NCc4ccc(C#N)cc4)nn(C)c3C2=O)CC1` [Example 254, N-(4-cyanobenzyl)-6-((1-(N-(3-(dimethylamino)-3-oxopropyl)sulfamoyl)cyclopropyl)methyl)-1-methyl-7-oxo-4,5,6,7-tetrahydro-1H-pyrazolo[3,4-c]pyridine-3-carboxamide], the EC50 was determined as 1 µM.
For the compound `Cn1nc(C(=O)NCc2ccc(C#N)cc2)c2c1C(=O)N(CC1(S(=O)(=O)NCc3ncccn3)CC1)CC2` [Example 258, N-(4-cyanobenzyl)-1-methyl-7-oxo-6-((1-(N-(pyrimidin-2-ylmethyl)sulfamoyl)cyclopropyl)methyl)-4,5,6,7-tetrahydro-1H-pyrazolo[3,4-c]pyridine-3-carboxamide], the EC50 turned out to be 0.688 µM.
The same measure, in the same setting: the figure for `CC(NS(=O)(=O)C1(CN2CCc3c(C(=O)NCc4ccc(C#N)cc4)nn(C)c3C2=O)CC1)c1cnccn1` (centres unmarked) [Example 259, N-(4-cyanobenzyl)-1-methyl-7-oxo-6-((1-(N-(1-(pyrazin-2-yl)ethyl)sulfamoyl)cyclopropyl)methyl)-4,5,6,7-tetrahydro-1H-pyrazolo[3,4-c]pyridine-3-carboxamide] is 0.714 µM; for `Cn1nc(C(=O)NCc2ccc(C#N)cc2)c2c1C(=O)N(CC1(S(=O)(=O)Nc3ncccc3F)CC1)CC2` [Example 247, N-(4-cyanobenzyl)-6-((1-(N-(3-fluoropyridin-2-yl)sulfamoyl)cyclopropyl)methyl)-1-methyl-7-oxo-4,5,6,7-tetrahydro-1H-pyrazolo[3,4-c]pyridine-3-carboxamide] it is 0.388 µM; for `Cn1nc(C(=O)NCc2ccc(C#N)cc2)c2c1C(=O)N(CC1(S(=O)(=O)NC(CO)(CO)CO)CC1)CC2` [Example 261, N-(4-cyanobenzyl)-6-((1-(N-(1,3-dihydroxy-2-(hydroxymethyl)propan-2-yl)sulfamoyl)cyclopropyl)methyl)-1-methyl-7-oxo-4,5,6,7-tetrahydro-1H-pyrazolo[3,4-c]pyridine-3-carboxamide] it is 2.58 µM.
Take `Cn1nc(C(=O)NCc2ccc(C#N)cc2)c2c1C(=O)N(CC1(S(=O)(=O)Nc3cccc(CO)n3)CC1)CC2` [Example 243, N-(4-cyanobenzyl)-6-((1-(N-(6-(hydroxymethyl)pyridin-2-yl)sulfamoyl)cyclopropyl)methyl)-1-methyl-7-oxo-4,5,6,7-tetrahydro-1H-pyrazolo[3,4-c]pyridine-3-carboxamide]: the EC50 came to 0.115 µM.
Consider `Cn1nc(C(=O)NCc2ccc(Cl)c(F)c2)c2c1C(=O)N(CC1(S(=O)(=O)C(C)(C)C(O)CO)CC1)CC2` (centres unmarked) [Example 249, N-(4-chloro-3-fluorobenzyl)-6-((1-((3,4-dihydroxy-2-methylbutan-2-yl)sulfonyl)cyclopropyl)methyl)-1-methyl-7-oxo-4,5,6,7-tetrahydro-1H-pyrazolo[3,4-c]pyridine-3-carboxamide], for which the EC50 was 0.00824 µM.
As to `Cn1nc(C(=O)NCc2ccc(C#N)cc2)c2c1C(=O)N(CC1(S(=O)(=O)Nc3ccccc3)CC1)CC2` [Example 246, N-(4-cyanobenzyl)-1-methyl-7-oxo-6-((1-(N-phenylsulfamoyl)cyclopropyl)methyl)-4,5,6,7-tetrahydro-1H-pyrazolo[3,4-c]pyridine-3-carboxamide], the EC50 was 0.0745 µM.
For `CC(=O)Nc1cccc(NS(=O)(=O)C2(CN3CCc4c(C(=O)NCc5ccc(C#N)cc5)nn(C)c4C3=O)CC2)n1` [Example 244, 6-((1-(N-(6-acetamidopyridin-2-yl)sulfamoyl)cyclopropyl)methyl)-N-(4-cyanobenzyl)-1-methyl-7-oxo-4,5,6,7-tetrahydro-1H-pyrazolo[3,4-c]pyridine-3-carboxamide], the EC50 came out at 0.116 µM.
With `Cn1nc(C(=O)NCc2ccc(Cl)c(F)c2)c2c1C(=O)N(CC1(S(=O)(=O)C(C)(C)[C@H](O)CO)CC1)CC2` [Example 250, (R)—N-(4-chloro-3-fluorobenzyl)-6-((1-((3,4-dihydroxy-2-methylbutan-2-yl)sulfonyl)cyclopropyl)methyl)-1-methyl-7-oxo-4,5,6,7-tetrahydro-1H-pyrazolo[3,4-c]pyridine-3-carboxamide], the EC50 turned out to be 0.0267 µM.
Same read-out and setting: the figure for `Cn1nc(C(=O)NCc2ccc(C#N)cc2)c2c1C(=O)N(CC1(S(=O)(=O)NC(C)(CO)CO)CC1)CC2` [Example 257, N-(4-cyanobenzyl)-6-((1-(N-(1,3-dihydroxy-2-methylpropan-2-yl)sulfamoyl)cyclopropyl)methyl)-1-methyl-7-oxo-4,5,6,7-tetrahydro-1H-pyrazolo[3,4-c]pyridine-3-carboxamide] is 0.358 µM; for `Cn1nc(C(=O)NCc2ccc(C#N)cc2)c2c1C(=O)N(CC1(S(N)(=O)=O)CC1)CC2` [Example 262, N-(4-cyanobenzyl)-1-methyl-7-oxo-6-((1-sulfamoylcyclopropyl)methyl)-4,5,6,7-tetrahydro-1H-pyrazolo[3,4-c]pyridine-3-carboxamide] it is 0.252 µM.
Take `Cn1nc(C(=O)NCc2ccc(C#N)cc2)c2c1C(=O)N(CC1(S(=O)(=O)NC(C)(C)CC(N)=O)CC1)CC2` [Example 253, 6-((1-(N-(4-amino-2-methyl-4-oxobutan-2-yl)sulfamoyl)cyclopropyl)methyl)-N-(4-cyanobenzyl)-1-methyl-7-oxo-4,5,6,7-tetrahydro-1H-pyrazolo[3,4-c]pyridine-3-carboxamide]: the half-maximal effective concentration (EC50) amounted to 0.386 µM.
The same measure, in the same setting: the figure for `Cn1nc(C(=O)NCc2ccc(C#N)cc2)c2c1C(=O)N(CC1(S(=O)(=O)Nc3ccccc3C#N)CC1)CC2` [Example 248, N-(4-cyanobenzyl)-6-((1-(N-(2-cyanophenyl)sulfamoyl)cyclopropyl)methyl)-1-methyl-7-oxo-4,5,6,7-tetrahydro-1H-pyrazolo[3,4-c]pyridine-3-carboxamide] is 10 µM; for `Cn1nc(C(=O)NCc2ccc(C#N)cc2)c2c1C(=O)N(CC1(S(=O)(=O)NCc3cnccn3)CC1)CC2` [Example 260, N-(4-cyanobenzyl)-1-methyl-7-oxo-6-((1-(N-(pyrazin-2-ylmethyl)sulfamoyl)cyclopropyl)methyl)-4,5,6,7-tetrahydro-1H-pyrazolo[3,4-c]pyridine-3-carboxamide] it is 0.278 µM; for `Cn1nc(C(=O)NCc2ccc(C#N)cc2)c2c1C(=O)N(CC1(S(=O)(=O)NC3(c4cccnn4)CC3)CC1)CC2` [Example 256, N-(4-cyanobenzyl)-1-methyl-7-oxo-6-((1-(N-(1-(pyridazin-3-yl)cyclopropyl)sulfamoyl)cyclopropyl)methyl)-4,5,6,7-tetrahydro-1H-pyrazolo[3,4-c]pyridine-3-carboxamide] it is 10 µM.
